Test results: patent US7005418B1, “Method for the therapeutic management of extrauterine proliferation of endometrial tissue, chronic pelvic pain and fallopian tube obstruction” (Zentaris GmbH, priority 1999, dated 2006)
Non-standard residues stand in square brackets, D forms with d. Residues, ends and D or L forms follow the SMILES beside them. dPhe(4-Cl) = N[C@H](Cc1ccc(Cl)cc1)C(=O)O; d2Nal = N[C@H](Cc1ccc2ccccc2c1)C(=O)O; dCit = NC(=O)NCCC[C@@H](N)C(=O)O; d3Pal = N[C@H](Cc1cccnc1)C(=O)O

Legend:
[1] = test system: patients with confirmed endometriosis; experiment: Weekly s.c. LHRH-antagonist treatment for 8 weeks in patients with endometriosis: clinical outcome and tolerability (2nd look laparascopy, histological biopsies); type: in vivo, human (patients); conditions: for hot flushes or other (estradiol) withdrawal symptoms / proliferation of the endometrium at the end of treatment (histological biopsies): patients with endometriosis, 3 mg weekly for 8 weeks
Protocol: (§1) The weekly administration of an adequate dose of an LHRH antagonist, e.g. 3 mg Cetrotide® s.c./ per week over a period of eight weeks leads to a controlled suppression of estrogen secretion so that serum concentrations between about 35 pg/ml and about 80 pg/ml, preferably between about 45–75 pg/ml, more preferably between about 50–75 pg/ml are obtained. […] Also the development of osteoporosis can be avoided.

estradiol secretion = experiment: Weekly s.c. LHRH-antagonist treatment for 8 weeks in patients with endometriosis: estradiol serum levels; type: in vivo, human (patients); conditions: weekly dose of 1 mg resp. 3 mg once per week
Protocol: 3 mg once per week. The estradiol serum levels are between about 35–80 pg/ml, preferably between about 45–75 pg/ml, more preferably between about 50–75 pg/ml.
as §1

[2] = nine patients with confirmed endometriosis, 3 mg s.c. weekly for 8 weeks

## CC(=O)N[C@H](Cc1ccc2ccccc2c1)C(=O)N[C@H](Cc1ccc(Cl)cc1)C(=O)N[C@H](Cc1cccnc1)C(=O)N[C@@H](CO)C(=O)N[C@@H](Cc1ccc(O)cc1)C(=O)N[C@H](CCCNC(N)=O)C(=O)N[C@@H](CC(C)C)C(=O)N[C@@H](CCCNC(=N)N)C(=O)N1CCC[C@H]1C(=O)N[C@H](C)C(N)=O [Cetrorelix] (Ac-[d2Nal][dPhe(4-Cl)][d3Pal]SY[dCit]LRP[dA]-NH2)
[1]
  hot flushes or other (estradiol) withdrawal symptoms: without any signs of estradiol withdrawal symptoms
  proliferation of the endometrium at the end of treatment (histological biopsies): without proliferation of the endometrium
Estradiol secretion
  estradiol serum levels (FIG. 2): 35 to 80 pg/mL

## CC(=O)N[C@H](Cc1ccc2ccccc2c1)C(=O)N[C@H](Cc1ccc(Cl)cc1)C(=O)N[C@H](Cc1cccnc1)C(=O)N[C@@H](CO)C(=O)N[C@@H](Cc1ccc(O)cc1)C(=O)N[C@H](CCCNC(N)=O)C(=O)N[C@@H](CC(C)C)C(=O)N[C@@H](CCCNC(=N)N)C(=O)N1CCC[C@H]1C(=O)N[C@H](C)C(N)=O [Cetrorelix acetate] (Ac-[d2Nal][dPhe(4-Cl)][d3Pal]SY[dCit]LRP[dA]-NH2)
[1]; [2]
  ovarian cyst formation: No ovarian cyst formation occurred
  progress of the disease, confirmed by 2nd look laparascopy: without any progress of the disease
[1]
  hot flushes or other (estradiol) withdrawal symptoms: avoiding any hot flushes or other withdrawal symptoms
  proliferation of the endometrium at the end of treatment (histological biopsies): no proliferation of the endometrium
